Test results published in patent US9422235B2, “Sulfonamide derivatives with therapeutic indications” (Pharmos Corporation, priority 2006, dated 2016).
Read-outs that look alike come from different tables or passages of the source.

Columns and labels:
[1] = target: human CB2 receptor (Homo sapiens (Human), UniProt P34972); test: [35S]GTPγS-binding assay, functional activity at the human CB2 receptor; format: biochemical
Description: Functional activity of compounds of the invention toward the cannabinoid receptors was determined by stimulation of [^35S]-GTPγS binding using membranes from HEK-293 cells expressing the hCB1 receptor and membranes expressing the hCB2 receptor derived from either Sf9 (PerkinElmer) or from HEK-293 cells. Activities were compared to that of the known cannabinoid full agonist CP55940 (Alexis). The purpose of this experiment is to determine the potency of the compounds of the invention as agonists or antagonists toward each of the receptor tested.
[^35]-GTPγS binding reactions were performed at 30° C. in 96-well plates containing 5-10 μg membrane protein suspended in 0.1 ml binding buffer (20 mM HEPES-NaOH, pH 7.4, 5 mM MgCl2, 100 mM NaCt, 0.2% (w/v) bovine serum albumin) supplemented with 50 μM GDP and 0.06 nM-10 μM of the compound being tested. Binding was initiated by the addition of [^35S]GTPγS (0.3 nM final concentration). Incubations were performed for 90 minutes and were terminated by filtration on GF/C filter plates (PerkinElmer). Filters were washed ten times with ice-cold wash buffer (20 mM HEPES-NaOH, pH 7.4, 10 mM sodium pyrophosphate). Non-specific binding was measured in the presence of 15 μM GTPγS.
Assays were performed in duplicates. Data was analyzed by plotting on the X axis the log concentration against percent of specific [^35S]GTPγS binding out of basal [^35S]GTPγS binding on the Y axis, non-linear regression is then performed using GraphPad Prism, version 3.0 (GraphPad, San Diego, Calif.) to calculate the EC50 and Emax of the compound. The EC50 value represents the concentration at which there is 50% [^35S]GTPγS binding and the Emax value the upper plateau of the curve.
CP55940 is a full agonist of the human and rat CB2 receptors. […] Full or partial agonism at the receptor was determined relative to the Emax value of CP55940.

[2] = system: Male Sprague Dawley rats; test: Thermal analgesic activity in CFA-induced inflammatory acute pain (Plantar test); format: in vivo, rat; details: one hour post daily administration, third day of treatment
Description: The thermal analgesic effect induced by compounds of the present invention on inflammatory acute pain was assessed. Inflammatory pain and paw edema were induced by intraplantar injection of 50% Complete Freund's Adjuvant (CFA) suspension in the animal hind paw.
Male Sprague Dawley rats (average body weight 200 g, Harlan, Israel) were transiently sedated by placement on dry ice for the duration of the injections. Rats were injected subcutaneously, in the subplantar region of one (right) paw with 0.15 ml of 50% w/v CFA in sterile saline. […] Test compounds were administered i.p. at initial single dose of 10-60 mg/kg (depending on the test compound), and volume dose of 5 ml/kg, 24 hours post CFA injection. Vehicle and Celecoxib treated animals were used as controls. Each treatment group comprised at least six animals.
Prior to, 48 hours post induction of inflammatory pain and one hour after daily drug administration, the animals reaction to pain stimuli was tested by thermal stimulus. The thermal analgesia was assessed using a Plantar test (Ugo Basile). At the end of the study, animals were euthanized.
Results, expressed as percent of baseline value (% reversal) or withdrawal latency, are depicted in FIGS. 9 and 10. […] Results are expressed as mean±SEM for each treatment group and the differences among those groups are analyzed by T-test. […]

[3] = system: female BALB/c mice; test: Dextran Sulfate Salt (DSS)-induced acute colitis; format: in vivo, mouse; details: for % Survival / Clinical score / Percentage change in body weight: i.p.
Source text: In order to test the activity of compounds of the invention in an animal model of inflammatory bowel disease, female BALB/c mice 9-12 week old (Harlan, Israel) were used for Dextran Sulfate Salt (DSS)-induced acute colitis studies. Mice (ten per treatment group) were provided with a solution of tap water containing 5% DSS (MW. 36000-50000; MP Biomedicals, LLC) ad libitum over an 8 day period. The DSS solution was replenished every other day and switched to tap water at day 8. Body weight was measured daily. The clinical scores combined both macroscopic (diarrhea, body weight, mortality) as well as microscopic (pathological) scores. Diarrhea score in the studies for each animal represented the daily summary of stool consistency (scored as: 0, normal; 1, soft but still formed; 2, very soft; 3, diarrhea) and the presence of blood in stool (scored: 0, None; 1, visible blood traces in stool; 2, signs of blood; 3, rectal bleeding). At the end of experiment animals were euthanized and their colons are examined for signs of pathological damage. The pathological scores, colon length and weight were determined from the cecum to the anus (scored: 0, normal; 1, slight inflammation; 2, moderate inflammation and/or edema; 3, heavy inflammation and/or ulceration and/or edema).
Two compounds were tested in DSS-induced colitis in mice, compounds 4 and 58. […] Results are expressed as mean ± SEM for each treatment group and the differences among those groups are analyzed by T-test. Two crosshatches indicate a p value below 0.01 and three indicate a p value below 0.001. Asterisks denote statistical significant weight loss relative to animal weight in the beginning of the experiment.
Alternatively, compound 58 (30 mg/kg) was administered orally from the first day of DSS administration (day 1) until the end of the experiment (day 10).

[4] = system: Male Sprague Dawley rats; test: Chronic inflammatory pain, intra-articular CFA in knee, weight bearing; format: in vivo, rat
[5] = Cell line C2-4, Emax of compound divided by Emax of CP55940
[6] = Cell line C2-4, upper plateau of [35S]GTPγS binding curve
[7] = read-out: % Activity (relative to CP55,940)
[8] = Cell line C2-4, Emax of compound divided by Emax of CP55940, read-out: % Activity (relative to CP55,940)
[9] = Cell line C2-4, upper plateau of [35S]GTPγS binding curve, read-out: Emax (%)

human CB2 receptor, sequence (P34972 whole entry): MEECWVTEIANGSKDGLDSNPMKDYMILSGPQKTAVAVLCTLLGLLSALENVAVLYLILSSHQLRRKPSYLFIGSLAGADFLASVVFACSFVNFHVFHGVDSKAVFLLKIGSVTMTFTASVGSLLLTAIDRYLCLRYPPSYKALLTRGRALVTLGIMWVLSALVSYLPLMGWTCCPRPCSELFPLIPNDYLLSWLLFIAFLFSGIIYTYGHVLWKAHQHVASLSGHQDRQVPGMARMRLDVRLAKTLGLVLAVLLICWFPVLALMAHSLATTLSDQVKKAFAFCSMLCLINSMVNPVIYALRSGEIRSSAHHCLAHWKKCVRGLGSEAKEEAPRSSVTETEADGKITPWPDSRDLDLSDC

With “4-(Bicyclo[2.2.1]hept-2-ylamino)-N-cyclopropylmethyl-2-trifluoromethyl-benzenesulfonamide [Compound 58]” the “% Activity (relative to CP55,940)” value [1, 5] was 40%, the “Emax (%)” value [1, 6] was 29% and the “reversal of thermal pain threshold (withdrawal latency)” value ([2]; 30 mg/kg i.p.) was “reversed the pain threshold”. The “% Survival” value ([3]; 10 mg/kg) was 100%, the Clinical score ([3]; 10 mg/kg) was 4.33 ± 0.22 and the “Percentage change in body weight” value ([3]; 10 mg/kg) was −12.9 ± 2.6 %. The mortality ([3]; 30 mg/kg orally, day 1 to day 10) was “not observed”, the “clinical score over time” value ([3]; 30 mg/kg orally, day 1 to day 10, from day 8 until end of experiment) was “statistical significant amelioration” and the pathological score ([3]; 30 mg/kg orally, day 1 to day 10, not statistically significant versus vehicle) was 1.9±0.5. The “% Survival” value ([3]; 30 mg/kg) was 100%, the Clinical score ([3]; 30 mg/kg) was 4.58 ± 0.2 and the “Percentage change in body weight” value ([3]; 30 mg/kg) was −13.9 ± 2.3 %. The “efficacy in DSS-induced colitis (weight loss, clinical signs or gross pathology)” value ([3]; administered intraperitoneally) was “modest efficacy”.

With `CCCCCCC(C)(C)c1ccc([C@@H]2C[C@H](O)CC[C@H]2CCCO)c(O)c1` [CP55940, reference compound] the Emax [1] was 50 to 70%.

`O=S(=O)(NCC1CC1)c1ccc(Nc2ccc(Cl)cc2Cl)cc1C(F)(F)F` [Compound 3, N-Cyclopropylmethyl-4-(2,4-dichloro-phenylamino)-2-trifluoromethyl-benzenesulfonamide] showed an Emax [1] of 30% and an Emax [1, 7] of 46%.

With `O=S(=O)(NCC1CCCO1)c1ccc(NC2CC3CCC2C3)cc1C(F)(F)F` (stereo not drawn) [Compound 26, 4-(Bicyclo[2.2.1]hept-2-ylamino)-N-(tetrahydro-furan-2-ylmethyl)-2-trifluoromethyl-benzenesulfonamide] the Emax [1, 8] was 35% and the Emax [1, 9] was 19%.

With `O=S(=O)(NCC1CCOCC1)c1ccc(Nc2ccc(Cl)cc2Cl)cc1C(F)(F)F` [Compound 35, 4-(2,4-Dichloro-phenylamino)-N-(tetrahydro-pyran-4-ylmethyl)-2-trifluoromethyl-benzenesulfonamide] the Emax [1] was 19%, the Emax [1, 7] was 35% and the “reversal of the CFA induced hypersensitivity (weight bearing)” value ([4]; 15 mg/kg, b.i.d, three days of administration) was “significant reversal”.

In the case of `O=S(=O)(NCC1CCOCC1)c1ccc(NC2CC3CCC2C3)cc1C(F)(F)F` (stereo not drawn) [Compound 41, 4-(Bicyclo[2.2.1]hept-2-ylamino)-N-(tetrahydro-pyran-4-ylmethyl)-2-trifluoromethyl-benzenesulfonamide], the Emax [1, 8] is reported as 36%, the Emax [1, 9] is reported as 26% and the “analgesic effect (% reversal)” value ([4]; 15 mg/kg b.i.d., day 1 and 2 post administration) is reported as 30%.

With `COc1ccc(Nc2ccc(S(=O)(=O)NCC3CC3)c(C(F)(F)F)c2)c(OC)c1` [Compound 44, N-cyclopropylmethyl-4-(2,4-dimethoxy-phenylamino)-2-trifluoromethyl-benzenesulfonamide] the Emax [1] was 5% and the Emax [1, 7] was 9.8%.

`CC(C)(NS(=O)(=O)c1ccc(NC2CC3CCC2C3)cc1C(F)(F)F)C1CC1` (stereo not drawn) [Compound 74, 4-(Bicyclo[2.2.1]hept-2-ylamino)-N-(1-cyclopropyl-1-methyl-ethyl)-2-trifluoromethyl-benzenesulfonamide] was tested, and the Emax [1] was 30% and the Emax [1, 7] was 45%.

`O=S(=O)(NCC1CC1)c1ccc(NC2CCCCCC2)cc1C(F)(F)F` [Compound 87, 4-Cycloheptylamino-N-cyclopropylmethyl-2-trifluoromethyl-benzenesulfonamide] showed an Emax [1] of 21% and an Emax [1, 7] of 29%.

`O=S(=O)(NCC1CC1)c1ccc(NC2CCCCCCC2)cc1C(F)(F)F` [Compound 88, 4-Cyclooctylamino-N-cyclopropylmethyl-2-trifluoromethyl-benzenesulfonamide] was tested, and the Emax [1, 8] was 9.8% and the “Emax (%)” value [1, 6] was 5%.

`O=S(=O)(NCC1CC1)c1ccc(NN2CCCCCC2)cc1C(F)(F)F` [Compound 105, 4-(Azepan-1-ylamino)-N-cyclopropylmethyl-2-trifluoromethyl-benzenesulfonamide] showed an Emax [1] of 34% and an Emax [1, 7] of 43%.

With `CC(C)(NS(=O)(=O)c1ccc(NC2CCCCC2)cc1C(F)(F)F)C1CC1` [Compound 108, 4-Cyclohexylamino-N-(1-cyclopropyl-1-methyl-ethyl)-2-trifluoromethyl-benzenesulfonamide] the Emax [1, 8] was 49.3% and the “Emax (%)” value [1, 6] was 39%.

“N-Cyclopropylmethyl-4-(piperidin-1-ylamino)-2-trifluoromethyl-benzenesulfonamide [Compound 94]” was tested, and the “% Activity (relative to CP55,940)” value [1, 5] was 30%, the “Emax (%)” value [1, 6] was 20% and the “reversal of thermal pain threshold (percent of baseline value, % reversal)” value ([2]; 60 mg/kg i.p.) was “reversed the pain threshold”.
